Assay results taken from publication PMC4893612 (Scientific Reports, 2016).
Where two headings read alike, the source gives them in different places.

How the values were obtained:
proteasome DUB activity [1] = test system: proteasome DUB activity; parameters: method as in PMID 25854145; conditions: in cells; read-out: in vivo IC50 for inhibition of proteasome DUB activity and induction of apoptosis; cited from earlier work
[2] = test system: KMS-11 multiple myeloma cells; format: in vivo; conditions: 3 mg/kg intravenous, 10 days; SCID mice
Experimental: Two different multiple myeloma models were used. Experimental protocols and methods were performed by Accelera (Nerviano, Italy) in accordance with guidelines and with permission from the local ethics committee (Nerviano Medical Sciences (NMS) Ethic Committee). All experimental protocols were approved by the Nerviano Medical Sciences (NMS) Ethic Committee. Study director was Marina Ciomei. SCID female mice were obtained from Charles River, Italy. Body weights at the day of tumor implant were between 19 and 22 grams. Treatment started at day 7 after injection of tumor cells and continued for 10 consequtive days. Mice were monitored daily for mortality and clinical signs. In the KMS-11 model, antitumor efficacy was evaluated in terms of survival increase respect to control. In the RPMI8226 model, the growth of subcutaneous tumors was recorded. […] A gray-scale image of the mice was captured, followed by an overlay of a bioluminescence map representing the spatial distribution of photons detected from cleaved luciferin in the cancer cells expressing luciferase. Signal intensity was quantified using a customized version of the IGOR Pro version 4.09A Software (WaveMetrics, Inc., Lake Oswego, OR) called Living Image version 3.00 (Xenogen). Photon emission was measured as whole-body radiance and the individual regions of interest (ROIs) were manually selected. […]

UCHL5 = biological target: T1, UCHL5 (Homo sapiens, UniProt Q9Y5K5); assay: HA-Ub-VS active-site labeling of purified 19S, UCHL5; format: biochemical; conditions: purified 19S RP; compared with USP14
T1 construct: purchased Boston Biochem E-366
Experimental: Cell extract proteins were resolved by Tris-Acetate PAGE gels (Invitrogen, Carlsbad, CA) and transferred onto a polyvinylidene difluoride (PVDF) membrane for western blotting. For Ub-VS labeling, we lysed cell pellets from control or treated cells with buffer (50 mM HEPES pH 7.4, 250 mM sucrose, 10 mM MgCl2, 2 mM ATP, 1 mM DTT and 1%NP-40) on ice for 30 min and removed debris by centrifugation. We labeled 25 μg of protein with 1 μM Ub-VS for 30 min at 37 °C. We resolved samples by SDS-PAGE and performed immunoblotting. For HA-Ub-VS labeling, we pretreated purified 19S (5 nM) with DMSO or 2.5, 5, 10, 15 or 25μM 1570 for 10 min at room temperature, which followed with labeling with 1 μM HA-Ub-VS for 30 min at 37 °C and immunoblotting.

KMS-11 = assay: MTT antiproliferative assay, KMS-11; format: cell-based; conditions: Homo sapiens, 72 hours
Experimental: Cell viability was monitored by the MTT (3-(4,5-dimethylthiazol-2-yl)-2,5-diphenyltetrazolium bromide) assay. For the MTT assay, cells were suspended at 5 × 10^5 cells/ml, and 100 μl aliquots were dispended into 96-well microtiter plates and exposed to drugs as described using DMSO control. At the end of incubations, 10 μl of a stock solution of 5 mg/ml MTT (3-(4,5-dimethylthiazol-2-yl)-2,5-diphenyltetrazolium bromide), was added into each well, and the plates were incubated 4 hours at 37 °C. Formazan crystals were dissolved with 100 μl of 10% SDS/10 mM HCl solution overnight at 37 °C. Since MTT assays are affected by mitochondrial activity, and since OXPHOS is affected by VLX1570 (unpublished observation), we used the acid phosphatase method[49] to determine cell viability in some experiments. After washing twice with PBS, cells were lysed in 100 μl of 0.1 M sodium acetate, 0,1% Triton X-100, p-nitrophenylphosphate (Pierce Biotechnology Inc, Rockford, IL) and incubated for 90 min at 37 °C. At the end of the incubation, 10 μl NaOH was added to each well and A405 was determined.

proteasome DUB activity [3] = test system: proteasome DUB activity; parameters: method as in PMID 25854145; conditions: competitive inhibitor; read-out: IC50, inhibition of proteasome DUB activity in vitro; cited from earlier work
RPMI8226 tumors = assay: Subcutaneous RPMI8226 multiple myeloma model in mice; format: in vivo
Experimental: Tissue sections were deparaffinized with xylene, rehydrated and microwaved and then incubated with primary antibodies diluted in 1% (wt/vol) BSA and visualized by standard avidin–biotin–peroxidase complex technique (Vector Laboratories, Burlingame, CA, USA). Counterstaining was performed with Mayer’s haematoxylin. Slides were mounted in Vectashield containing DAPI and images recorded in a Zeiss Axioplan 2 fluorescence microscope. Antibodies: KI67 Dako #M7240 (1:100)(using Rodent Block (Biocare-RBM961) and Envision Plus anti-mouse labeled polymer (Dako K4001); Ub-K48 (Millipore-05-1307) (1:100) (serum free Protein block (Dako-X0909)) and Envision + anti-rabbit labeled polymer (Dako-K4003); CXCR4 (Sigma-C3116) (1:400) (Dako-X0909) and Envision + anti-rabbit labeled polymer (Dako-K4003); cleaved casapse-3 (Cell Signaling-9664) (1:100) (Dako-X0909) and Envision + anti-rabbit labeled polymer (Dako-K4003).
Two different multiple myeloma models were used. Experimental protocols and methods were performed by Accelera (Nerviano, Italy) in accordance with guidelines and with permission from the local ethics committee (Nerviano Medical Sciences (NMS) Ethic Committee). All experimental protocols were approved by the Nerviano Medical Sciences (NMS) Ethic Committee. Study director was Marina Ciomei. SCID female mice were obtained from Charles River, Italy. Body weights at the day of tumor implant were between 19 and 22 grams. Treatment started at day 7 after injection of tumor cells and continued for 10 consequtive days. Mice were monitored daily for mortality and clinical signs. In the KMS-11 model, antitumor efficacy was evaluated in terms of survival increase respect to control. In the RPMI8226 model, the growth of subcutaneous tumors was recorded. For imaging, mice were injected intraperitoneally with 150 mg/kg d-luciferin (Promega) followed by anesthetization in 2–3% isoflurane atmosphere. After 10–12 minutes of biodistribution time, mice were imaged using a charge coupled device (CCD camera, Xenogen IVIS Lumina System) to evaluate the bioluminescence in the animal. Nose-cone isoflurane delivery system and heated stage for maintaining body temperature were used. A gray-scale image of the mice was captured, followed by an overlay of a bioluminescence map representing the spatial distribution of photons detected from cleaved luciferin in the cancer cells expressing luciferase. Signal intensity was quantified using a customized version of the IGOR Pro version 4.09A Software (WaveMetrics, Inc., Lake Oswego, OR) called Living Image version 3.00 (Xenogen). Photon emission was measured as whole-body radiance and the individual regions of interest (ROIs) were manually selected. Data were expressed as photon/second/cm^2/steradian.

OPM-Bz^R cells = assay: 3H-VLX1570 cellular uptake, OPM-Bz^R versus parental cells; conditions: OPM-Bz^R cells compared to parental cells

Q: With `C=CC(=O)N1CC/C(=C\c2ccc(F)c([N+](=O)[O-])c2)C(=O)/C(=C/c2ccc(F)c([N+](=O)[O-])c2)C1` [VLX1570] as the molecule, how does the IC50 (proteasome DUB activity [1]) read?
A: < 1 µM

Q: What about the “survival of the animals” value [2] of the same molecule?
A: increased the survival

Q: And the “inhibition of UCHL5 (Ub-VS labeling)” value (UCHL5)?
A: required higher drug concentrations

Q: And the IC50 (KMS-11)?
A: 0.043 ± 0.002 µM

Q: And the IC50 (proteasome DUB activity [3])?
A: ~10 µM

Q: What about the tumor growth (RPMI8226 tumors; 3 mg/kg, 10 consecutive days, subcutaneous RPMI8226) of the same molecule?
A: significant decrease in tumor growth

Q: And the “CXCR4 staining in tumors (immunohistochemistry)” value (RPMI8226 tumors; RPMI8226 tumors, 3 mg/kg)?
A: decreased CXCR4 staining

Q: And the “K48-linked ubiquitin chains in tumors” value (RPMI8226 tumors; RPMI8226 tumors, 3 mg/kg)?
A: increases in K48-linked ubiquitin chains

Q: What about the “active caspase-3 in tumors” value (RPMI8226 tumors; RPMI8226 tumors, 3 mg/kg) of the same molecule?
A: increased active caspase-3

Q: And the “ERK phosphorylation in RPMI8226 cells in vivo” value (RPMI8226 tumors; after exposure of mice)?
A: decreased ERK phosphorylation

Q: What about the “cellular uptake of radiolabeled drug” value (OPM-Bz^R cells) of the same molecule?
A: decreased uptake
